Measured values as given in patent US20240043404A1 (AbbVie Inc., priority 2009, published 2024).
pEC50: −log10 of the molar value.

Test system: RS4;11 cells
Assay: RS4;11 cell viability assay (CellTiter Glo);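 also: acute lymphoblastic leukemia line RS4,11, EC50 derived from percentage of viable cells after treatment relative to untreated controls, cell killing taken as a measure of Bcl-2 inhibition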
Format: cell-based, human
Details: Homo sapiens, RS4-11, 48 h, 50,000 cells per well, 10% human serum, 48 hours; read-out: RS4; 11 EC50 Values
Procedure: The acute lymphoblastic leukemia (ALL) cell line RS4;11 was used as the primary human cell line to assess the cellular activity of Bcl-2 selective agents in vitro and their efficacy in vivo.
Cell cytotoxicity EC50 values were assessed using CellTiter Glo (Promega) according to the manufacturer's recommendations. The EC50 values were determined as a percentage of viable cells following treatment compared to the untreated control cells.

Row | SMILES | pEC50
1 | CC1(C)CCC(CN2CCN(c3ccc(C(=O)NS(=O)(=O)c4ccc(OCC5CCN(C(CF)CF)CC5)c([N+](=O)[O-])c4)c(Oc4cnc5[nH]ccc5c4)c3)CC2)=C(c2ccc(Cl)cc2)C1 [Example 129, 4-(4-{[2-(4-chlorophenyl)-4,4-dimethylcyclohex-1-en-1-yl]methyl}piperazin-1-yl)-N-{[4-({1-[2-fluoro-1-(fluoromethyl)ethyl]piperidin-4-yl}methoxy)-3-nitrophenyl]sulfonyl}-2-(1H-pyrrolo[2,3-b]pyridin-5-yloxy)benzamide] | 7.83
2 | CCN(C)C(=O)N1CCOC(CNc2ccc(S(=O)(=O)NC(=O)c3ccc(N4CCN(CC5=C(c6ccc(Cl)cc6)CC(C)(C)CC5)CC4)cc3Oc3cnc4[nH]ccc4c3)cc2[N+](=O)[O-])C1 (stereo not shown) [Example 318, 2-{[(4-{[4-(4-{[2-(4-chlorophenyl)-4,4-dimethylcyclohex-1-en-1-yl]methyl}piperazin-1-yl)-2-(1H-pyrrolo[2,3-b]pyridin-5-yloxy)benzoyl]sulfamoyl}-2-nitrophenyl)amino]methyl}-N-ethyl-N-methylmorpholine-4-carboxamide] | 7.94
3 | CC1(C)CCC(CN2CCN(c3ccc(C(=O)NS(=O)(=O)c4ccc(NC5CCN(C6CC6)CC5)c([N+](=O)[O-])c4)c(Oc4cnc5[nH]ccc5c4)c3)CC2)=C(c2ccc(Cl)cc2)C1 [Example 98, 4-(4-{[2-(4-chlorophenyl)-4,4-dimethylcyclohex-1-en-1-yl]methyl}piperazin-1-yl)-N-({4-[(1-cyclopropylpiperidin-4-yl)amino]-3-nitrophenyl}sulfonyl)-2-(1H-pyrrolo[2,3-b]pyridin-5-yloxy)benzamide] | 7.64
4 | CC(C)N1CCC2(CCC(c3ccc(Cl)cc3)=C(CN3CCN(c4ccc(C(=O)NS(=O)(=O)c5ccc(NCC6CCOCC6)c(C(F)(F)F)c5)c(Oc5cnc6[nH]ccc6c5)c4)CC3)C2)CC1 [Example 273, 4-(4-{[9-(4-chlorophenyl)-3-isopropyl-3-azaspiro[5.5]undec-8-en-8-yl]methyl}piperazin-1-yl)-2-(1H-pyrrolo[2,3-b]pyridin-5-yloxy)-N-({4-[(tetrahydro-2H-pyran-4-ylmethyl)amino]-3-(trifluoromethyl)phenyl}sulfonyl)benzamide] | 6.68
5 | CC1(C)CC(c2ccc(Cl)cc2)=C(CN2CCN(c3ccc(C(=O)NS(=O)(=O)c4ccc(N[C@H]5CC[C@@H](N6CCOCC6)CC5)c([N+](=O)[O-])c4)c(Oc4cnc5[nH]ccc5c4)c3)CC2)CO1 [Example 63, Cis-4-(4-{[4-(4-chlorophenyl)-6,6-dimethyl-5,6-dihydro-2H-pyran-3-yl]methyl}piperazin-1-yl)-N-({4-[(4-morpholin-4-ylcyclohexyl)amino]-3-nitrophenyl}sulfonyl)-2-(1H-pyrrolo[2,3-b]pyridin-5-yloxy)benzamide] | 8.12
6 | CC1(C)CCC(CN2CCN(c3ccc(C(=O)NS(=O)(=O)c4ccc(NCC5CN(C6COC6)CCO5)c([N+](=O)[O-])c4)c(Oc4cnc5[nH]ccc5c4)c3)CC2)=C(c2ccc(Cl)cc2)C1 (stereo not shown) [Example 217, 4-(4-{[2-(4-chlorophenyl)-4,4-dimethylcyclohex-1-en-1-yl]methyl}piperazin-1-yl)-N-{[3-nitro-4-({[4-(oxetan-3-yl)morpholin-2-yl]methyl}amino)phenyl]sulfonyl}-2-(1H-pyrrolo[2,3-b]pyridin-5-yloxy)benzamide] | 8.81
7 | O=C(NS(=O)(=O)c1cnc(OCC2(F)CCOCC2)c(Cl)c1)c1ccc(N2CCC(F)(Cc3ccccc3-c3ccc(Cl)cc3)CC2)cc1Oc1cnc2[nH]ccc2c1 [Example 272, 4-{4-[(4′-chlorobiphenyl-2-yl)methyl]-4-fluoropiperidin-1-yl}-N-({5-chloro-6-[(4-fluorotetrahydro-2H-pyran-4-yl)methoxy]pyridin-3-yl}sulfonyl)-2-(1H-pyrrolo[2,3-b]pyridin-5-yloxy)benzamide] | 6.08
